Measured values taken from paper PMC6803848, “Exploring New Structural Features of the 18β-Glycyrrhetinic Acid Scaffold for the Inhibition of Anaplastic Lymphoma Kinase” (Molecules, 2019).

Columns and labels:
[1] = tested on: HT29; test: MTT antiproliferative assay, HT29 cells; format: cell-based; details: Homo sapiens, HT-29, 48 h, MTT, read-out: Antiproliferative activity (growth inhibition, %); for inhibition at 2 µg/mL: HT29, 2 μg/mL; for inhibition at 20 µg/mL: HT29, 20 μg/mL
Description: (§1) All the cells were seeded in 96-well plates and incubated with 5% CO2 at 37 °C for 24 h. Next, the compounds and the reference were dissolved into the culture medium. The final concentration of DMSO in the medium was less than 0.5%. After the cells were treated with compounds for 48 h, the supernatant was removed and 5 mg/mL of a fresh prepared solution of MTT was added to each well and incubated with the cells at 37 °C for another 4 h. The medium was removed, and 100 μL of testing solution was added to each well. After an overnight incubation with 5% CO2 at 37 °C, the absorbance was measured at 490/630 nm by the microplate reader. The IC50 was calculated using GraphPad Prism version 6.0 software (San Diego, CA, USA) from the non-linear curve.

[2] = tested on: A549; test: MTT antiproliferative assay, A549 cells; format: cell-based; details: Homo sapiens, 48 h, MTT, read-out: Antiproliferative activity (growth inhibition, %); for inhibition at 2 µg/mL: A549, 2 μg/mL; for inhibition at 20 µg/mL: A549, 20 μg/mL
Description: as §1

SMILES: CC1(C)C2CC[C@]3(C)[C@H](C(=O)C=C4[C@@H]5C[C@@](C)(C(=O)N6CCOCC6)CC[C@]5(C)CC[C@]43C)[C@@]2(C)CC[C@@H]1OC(=O)Nc1cccc(Cl)c1 (stereo partly drawn) [4e, 3β-(((3-chlorophenyl)carbamoyl)oxy)-30-morpholino-olean-12-ene-11,30-dione]
- inhibition at 2 µg/mL [1]: 7.22%
- inhibition at 20 µg/mL [1]: 13.2%
- melting point: 291 to 292.5 °C
- inhibition at 2 µg/mL [2]: 0%
- inhibition at 20 µg/mL [2]: 0%

SMILES: CC1(C)C2CC[C@]3(C)[C@H](C(=O)C=C4[C@@H]5C[C@@](C)(C(=O)N6CCOCC6)CC[C@]5(C)CC[C@]43C)[C@@]2(C)CC[C@@H]1OC(=O)Nc1ccc(Cl)c(Cl)c1 (stereo partly drawn) [4a, 3β-(((3,4-dichlorophenyl)carbamoyl)oxy)-30-morpholino-olean-12-ene-11,30-dione]
- inhibition at 2 µg/mL [1]: 8.88%
- inhibition at 20 µg/mL [1]: 18.3%
- melting point: 292.5 to 293 °C
- inhibition at 2 µg/mL [2]: 0%
- inhibition at 20 µg/mL [2]: 0%

SMILES: CN1CCN(CC(=O)O[C@H]2CC[C@@]3(C)C(CC[C@]4(C)[C@@H]3C(=O)C=C3[C@@H]5C[C@@](C)(C(=O)O)CC[C@]5(C)CC[C@]34C)C2(C)C)CC1 (stereo partly drawn) [6c, 3β-(2-(4-methylpiperazin-1-yl)acetoxy)-11-oxo-olean-12-en-30-oic acid]
- inhibition at 2 µg/mL [1]: 0%
- inhibition at 20 µg/mL [1]: 0%
- melting point: 287.5 to 288.9 °C
- inhibition at 2 µg/mL [2]: 0%
- inhibition at 20 µg/mL [2]: 0%

SMILES: COc1cccc(NC(=O)O[C@H]2CC[C@@]3(C)C(CC[C@]4(C)[C@@H]3C(=O)C=C3[C@@H]5C[C@@](C)(C(=O)O)CC[C@]5(C)CC[C@]34C)C2(C)C)c1 (stereo partly drawn) [3l, 3β-(((3-methoxyphenyl)carbamoyl)oxy)-11-oxo-olean-12-en-30-oic acid]
- inhibition at 2 µg/mL [1]: 6.06%
- inhibition at 20 µg/mL [1]: 47.4%
- melting point: 259.5 to 261.1 °C
- inhibition at 2 µg/mL [2]: 9.74%
- inhibition at 20 µg/mL [2]: 53.7%

SMILES: CC1(C)C2CC[C@]3(C)[C@H](C(=O)C=C4[C@@H]5C[C@@](C)(C(=O)N6CCOCC6)CC[C@]5(C)CC[C@]43C)[C@@]2(C)CC[C@@H]1OC(=O)Nc1cc(C(F)(F)F)cc(C(F)(F)F)c1 (stereo partly drawn) [4k, 3β-(((3,5-bis(trifluoromethyl)phenyl)carbamoyl)oxy)-30-morpholino-olean-12-ene-11,30-dione]
- inhibition at 2 µg/mL [1]: 13%
- inhibition at 20 µg/mL [1]: 14.9%
- melting point: 313.4 to 314.7 °C
- inhibition at 2 µg/mL [2]: 4.47%
- inhibition at 20 µg/mL [2]: 0%

SMILES: COc1cccc(NC(=O)O[C@H]2CC[C@@]3(C)C(CC[C@]4(C)[C@@H]3C(=O)C=C3[C@@H]5C[C@@](C)(C(=O)N6CCOCC6)CC[C@]5(C)CC[C@]34C)C2(C)C)c1 (stereo partly drawn) [4l, 3β-(((3-methoxyphenyl)carbamoyl)oxy)-30-morpholino-olean-12-ene-11,30-dione]
- inhibition at 2 µg/mL [1]: 13.6%
- inhibition at 20 µg/mL [1]: 16.6%
- melting point: 305 to 306.8 °C
- inhibition at 2 µg/mL [2]: 0%
- inhibition at 20 µg/mL [2]: 0%

SMILES: CC1(C)C2CC[C@]3(C)[C@H](C(=O)C=C4[C@@H]5C[C@@](C)(C(=O)O)CC[C@]5(C)CC[C@]43C)[C@@]2(C)CC[C@@H]1OC(=O)Nc1ccc(Br)cc1 (stereo partly drawn) [3g, 3β-(((4-bromophenyl)carbamoyl)oxy)-11-oxo-olean-12-en-30-oic acid]
- inhibition at 2 µg/mL [1]: 18.6%
- inhibition at 20 µg/mL [1]: 76.5%
- melting point: 263 to 265 °C
- inhibition at 2 µg/mL [2]: 9.72%
- inhibition at 20 µg/mL [2]: 63.4%

SMILES: CC1(C(=O)N2CCOCC2)CCC2(C)CCC3(C)C(=CC(=O)C4C5(C)CCC(OC(=O)Nc6ccc(Br)cc6)C(C)(C)C5CCC43C)C2C1 (stereo not drawn) [4g, 3β-(((4-bromophenyl)carbamoyl)oxy)-30-morpholino-olean-12-ene-11,30-dione]
- inhibition at 2 µg/mL [1]: 14.3%
- inhibition at 20 µg/mL [1]: 27.1%
- inhibition at 2 µg/mL [2]: 0%
- inhibition at 20 µg/mL [2]: 1.02%

SMILES: CC1(C)C2CC[C@]3(C)[C@H](C(=O)C=C4[C@@H]5C[C@@](C)(C(=O)O)CC[C@]5(C)CC[C@]43C)[C@@]2(C)CC[C@@H]1OC(=O)CN1CCOCC1 (stereo partly drawn) [6a, 3β-(2-morpholinoacetoxy)-11-oxo-olean-12-en-30-oic acid]
- inhibition at 2 µg/mL [1]: 0%
- inhibition at 20 µg/mL [1]: 0%
- melting point: 275.3 to 276.4 °C
- inhibition at 2 µg/mL [2]: 0%
- inhibition at 20 µg/mL [2]: 0%

SMILES: CC1(C)C2CC[C@]3(C)[C@H](C(=O)C=C4[C@@H]5C[C@@](C)(C(=O)N6CCOCC6)CC[C@]5(C)CC[C@]43C)[C@@]2(C)CC[C@@H]1OC(=O)Nc1ccc(C(F)(F)F)cc1 (stereo partly drawn) [4i, 3β-(((4-(trifluoromethyl)phenyl)carbamoyl)oxy)-30-morpholino-olean-12-ene-11,30-dione]
- inhibition at 2 µg/mL [1]: 13.7%
- inhibition at 20 µg/mL [1]: 27.3%
- melting point: 296.4 to 298 °C
- inhibition at 2 µg/mL [2]: 0%
- inhibition at 20 µg/mL [2]: 4.46%

SMILES: CC1(C(=O)N2CCOCC2)CCC2(C)CCC3(C)C(=CC(=O)C4C5(C)CCC(OC(=O)Nc6ccc(F)cc6)C(C)(C)C5CCC43C)C2C1 (stereo not drawn) [4h, 3β-(((4-fluorophenyl)carbamoyl)oxy)-30-morpholino-olean-12-ene-11,30-dione]
- inhibition at 2 µg/mL [1]: 14.8%
- inhibition at 20 µg/mL [1]: 30.4%
- melting point: 305.1 to 311.4 °C
- inhibition at 2 µg/mL [2]: 0%
- inhibition at 20 µg/mL [2]: 8.54%

SMILES: CC1(C)C2CC[C@]3(C)[C@H](C(=O)C=C4[C@@H]5C[C@@](C)(C(=O)O)CC[C@]5(C)CC[C@]43C)[C@@]2(C)CC[C@@H]1OC(=O)Nc1ccc(F)cc1 (stereo partly drawn) [3h, 3β-(((4-fluorophenyl)carbamoyl)oxy)-11-oxo-olean-12-en-30-oic acid]
- inhibition at 2 µg/mL [1]: 11.8%
- inhibition at 20 µg/mL [1]: 58.6%
- melting point: 267.9 to 268.9 °C
- inhibition at 2 µg/mL [2]: 34.4%
- inhibition at 20 µg/mL [2]: 56.7%

SMILES: CC1(C)C2CC[C@]3(C)[C@H](C(=O)C=C4[C@@H]5C[C@@](C)(C(=O)O)CC[C@]5(C)CC[C@]43C)[C@@]2(C)CC[C@@H]1OC(=O)CN1CCN(c2ccccn2)CC1 (stereo partly drawn) [6d, 3β-(2-(4-(pyridin-2-yl)piperazin-1-yl)acetoxy)-11-oxo-olean-12-en-30-oic acid]
- inhibition at 2 µg/mL [1]: 0%
- inhibition at 20 µg/mL [1]: 0%
- melting point: 294 to 295.6 °C
- inhibition at 2 µg/mL [2]: 0%
- inhibition at 20 µg/mL [2]: 0%

SMILES: CC1(C)C2CC[C@]3(C)[C@H](C(=O)C=C4[C@@H]5C[C@@](C)(C(=O)N6CCOCC6)CC[C@]5(C)CC[C@]43C)[C@@]2(C)CC[C@@H]1OC(=O)Nc1cc(Cl)cc(Cl)c1 (stereo partly drawn) [4c, 3β-(((3,5-dichlorophenyl)carbamoyl)oxy)-30-morpholino-olean-12-ene-11,30-dione]
- inhibition at 2 µg/mL [1]: 7.41%
- inhibition at 20 µg/mL [1]: 2.76%
- melting point: 278.2 to 280.3 °C
- inhibition at 2 µg/mL [2]: 0%
- inhibition at 20 µg/mL [2]: 0%

SMILES: CC1(C)C2CC[C@]3(C)[C@H](C(=O)C=C4[C@@H]5C[C@@](C)(C(=O)O)CC[C@]5(C)CC[C@]43C)[C@@]2(C)CC[C@@H]1OC(=O)Nc1ccc(Cl)cc1 (stereo partly drawn) [3d, 3β-(((4-chlorophenyl)carbamoyl)oxy)-11-oxo-olean-12-en-30-oic acid]
- inhibition at 2 µg/mL [1]: 13.7%
- inhibition at 20 µg/mL [1]: 56.2%
- melting point: 235.1 to 236.7 °C
- inhibition at 2 µg/mL [2]: 9.93%
- inhibition at 20 µg/mL [2]: 55.4%

SMILES: CC1(C(=O)N2CCOCC2)CCC2(C)CCC3(C)C(=CC(=O)C4C5(C)CCC(OC(=O)Nc6ccc(Cl)cc6)C(C)(C)C5CCC43C)C2C1 (stereo not drawn) [4d, 3β-(((4-chlorophenyl)carbamoyl)oxy)-30-morpholino-olean-12-ene-11,30-dione]
- inhibition at 2 µg/mL [1]: 16.3%
- inhibition at 20 µg/mL [1]: 53.7%
- melting point: 298.4 to 299.7 °C
- inhibition at 2 µg/mL [2]: 0%
- inhibition at 20 µg/mL [2]: 54.4%

SMILES: CC1(C)C2CC[C@]3(C)[C@H](C(=O)C=C4[C@@H]5C[C@@](C)(C(=O)N6CCOCC6)CC[C@]5(C)CC[C@]43C)[C@@]2(C)CC[C@@H]1OC(=O)Nc1ccc(Cl)c(C(F)(F)F)c1 (stereo partly drawn) [4b, 3β-(((4-chloro-3-(trifluoromethyl)phenyl)carbamoyl)oxy)-30-morpholino-olean-12-ene-11,30-dione]
- inhibition at 2 µg/mL [1]: 14.4%
- inhibition at 20 µg/mL [1]: 32.8%
- melting point: 209.5 to 211.1 °C
- inhibition at 2 µg/mL [2]: 0%
- inhibition at 20 µg/mL [2]: 0%

SMILES: COc1ccc(NC(=O)O[C@H]2CC[C@@]3(C)C(CC[C@]4(C)[C@@H]3C(=O)C=C3[C@@H]5C[C@@](C)(C(=O)O)CC[C@]5(C)CC[C@]34C)C2(C)C)cc1 (stereo partly drawn) [3m, 3β-(((4-methoxyphenyl)carbamoyl)oxy)-11-oxo-olean-12-en-30-oic acid]
- inhibition at 2 µg/mL [1]: 12.8%
- inhibition at 20 µg/mL [1]: 32.3%
- melting point: 264 to 264.8 °C
- inhibition at 2 µg/mL [2]: 11.7%
- inhibition at 20 µg/mL [2]: 47.5%

SMILES: CC1(C(=O)N2CCOCC2)CCC2(C)CCC3(C)C(=CC(=O)C4C5(C)CCC(OC(=O)Nc6cccc(C(F)(F)F)c6)C(C)(C)C5CCC43C)C2C1 (stereo not drawn) [4j, 3β-(((3-(trifluoromethyl)phenyl)carbamoyl)oxy)-30-morpholino-olean-12-ene-11,30-dione]
- inhibition at 2 µg/mL [1]: 20.3%
- inhibition at 20 µg/mL [1]: 36.4%
- melting point: 295 to 296.7 °C
- inhibition at 2 µg/mL [2]: 0%
- inhibition at 20 µg/mL [2]: 0%

SMILES: CC1(C)C2CC[C@]3(C)[C@H](C(=O)C=C4[C@@H]5C[C@@](C)(C(=O)O)CC[C@]5(C)CC[C@]43C)[C@@]2(C)CC[C@@H]1OC(=O)CN1CCC(C(N)=O)CC1 (stereo partly drawn) [6b, 3β-(2-(4-carbamoylpiperidin-1-yl)acetoxy)-11-oxo-olean-12-en-30-oic acid]
- inhibition at 2 µg/mL [1]: 0%
- inhibition at 20 µg/mL [1]: 12.3%
- melting point: 283.5 to 285 °C
- inhibition at 2 µg/mL [2]: 0%
- inhibition at 20 µg/mL [2]: 0%
